Experimental data: doi:10.1101/2022.06.05.494897v1 (biorxiv, 2022)
pIC50: −log10 of the molar value. Like-named read-outs stand apart in the source and are kept apart here.

Key:
Type in all cases: biochemical
[1] = target: SARS-CoV-2 3CL^pro (Severe acute respiratory syndrome coronavirus 2, UniProt P0DTD1)
[2] = target: human cathepsin B (Homo sapiens, UniProt P07858); test: fluorogenic peptide cleavage assay
[3] = target: human cathepsin L (Homo sapiens, UniProt P07711); test: fluorogenic peptide cleavage assay
Sequence of human cathepsin L (P07711 114-333 limits assumed): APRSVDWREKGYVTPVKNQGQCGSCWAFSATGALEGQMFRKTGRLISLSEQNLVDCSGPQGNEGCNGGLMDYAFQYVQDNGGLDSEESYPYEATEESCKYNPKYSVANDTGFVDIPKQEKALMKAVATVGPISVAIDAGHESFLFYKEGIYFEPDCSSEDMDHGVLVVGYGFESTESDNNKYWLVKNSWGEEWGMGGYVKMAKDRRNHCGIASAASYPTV

N-((S)-1-(2-Acetyl-2-(((S)-2-oxopyrrolidin-3-yl)methyl)hydrazineyl)-4-methyl-1-oxopentan-2-yl)-4-fluoro-1H-indole-2-carboxamide [compound 12]
IC50 ([1]; […], no CFA warhead, 30 min preincubation, pH 7.3, 1 mM DTT, ambient temperature): 178 nM

CC(C)C[C@H](NC(=O)c1cc2c(F)cccc2[nH]1)C(=O)NN(C[C@@H]1CCNC1=O)C(=O)[C@H](F)Cl [8a, N-((S)-1-(2-((R)-2-Chloro-2-fluoroacetyl)-2-(((S)-2-oxopyrrolidin-3-yl)methyl)hydrazineyl)-4-methyl-1-oxopentan-2-yl)-4-fluoro-1H-indole-2-carboxamide]
pIC50 [2]: < 5.00 | pIC50 [3]: < 5.00

COc1cccc2[nH]c(C(=O)N[C@@H](CC(C)C)C(=O)NN(C[C@H]3CCNC3=O)C(=O)[C@H](F)Cl)cc12 [10b, N-((S)-1-(2-((R)-2-Chloro-2-fluoroacetyl)-2-(((R)-2-oxopyrrolidin-3-yl)methyl)hydrazineyl)-4-methyl-1-oxopentan-2-yl)-4-methoxy-1H-indole-2-carboxamide]
pIC50 [1]: 7.81
